Key:
MCF7 cells = test: Reactive oxygen species production in MCF7 cells (CM-H2DCFDA); assay type: cell-based; conditions: NU 7026 5 μM 12 h, DNP 200 μM 10 min, Troglitazone 30 μM 4 hr, Euk-134 5 μM 3 h, MnTBAP 14 μM 3 h, FIG. 4
Excerpt: Measurement of intracellular reactive oxygen species was based on changes in the fluorescence intensity of redox-sensitive fluorescent probes, including CM-H2DCFDA. CM-H2DCFDA is a probe for intracellular hydrogen peroxide (Jou M J et al. J. Biomed Sci 9:507 (2002)). CM-H2DCFDA rapidly diffuses into cells, reacts with intracellular glutathione and thiols, and yields a fluorescent product that is retained inside the cell (Shanker G et al. Mol Brain Res 128:48, 2004). The fluorescence intensity of CM-H2DCFDA is therefore indicative of the amount of intracellular H2O2.
Briefly, cells were incubated with 10 uM CM-H2DCFDA for 30 min at 37° C. The cells were then excited at the peak excitation wavelength for CM-H2DCFDA (485 nm) and emissions at 535 nm were measured with Wallac Victor multilable counter (Perkin Elmer). For glucose treatment, the total sugar content in the media was kept constant by supplementing with mannitol, which is not metabolized.
MCF-7 cells were obtained from ATCC and grown as recommended. Confluent MCF-7 cells were incubated with serum-free DMEM medium for 3-12 h before the experiment. MCF-7 cells were then treated with DNA-PK inhibitor NU 7026 (5 μM; Calbiochem) for 12 h, DNP (200 μM; Sigma) for 10 min, Troglitazone (30 μM) for 4 hr, Euk-134 (5 μM; Eukarion) for 3 h, MnTBAP (14 μM; Calbiochem) for 3 h and Resveratrol.

[1] = Glucose levels, insulin tolerance and glucose tolerance tests in treated mice; assay type: in vivo; conditions: mice, summary statement
Procedure: The therapeutic potential of DNA-PKcs inhibitors to treat insulin resistance and diabetes was tested in vivo using high-fat induced type 2 diabetes and obesity models. We examined the effects of DNA-PKcs inhibition by feeding C57BL6/J mice with Compound 36 (Cpd36) or vehicle. Mice were treated with Cpd36 (8 mg/kg body weight) twice daily by oral gavage for three months in all efficacy studies shown in FIGS. 40-47.

Light/dark chamber test = assay type: in vivo; conditions: treated vs untreated mice
Procedure: WT and SCID mice were tested in another anxiety test using the light-dark box (Bourin and Hascoet, Eur J Pharmacol 463:55 (2003)). The light-dark box test is based on the innate aversion of rodents to brightly illuminated areas and on the spontaneous exploratory behavior of rodents in response to a mildly stressful situation, that is, a novel environment and light (Crawley and Goodwin Pharmacol Biochem Behav 13:167, 1980). In the light-dark test, increased activity in the light compartment indicates decreased anxiety.
(§1) Elevated plus maze tests, light/dark chamber tests, forced swim tests (FST) and hot plate tests were performed as described earlier.

Forced swim test (FST) = assay type: in vivo, mice; conditions: data not shown
Procedure: as §1

[2] = Hot plate test, latency for pain reaction; assay type: in vivo, mice; conditions: FIG. 48E
Procedure: Epidemiological studies indicate that people with mood disorders are twice as likely to have chronic pain compared to people without mood disorders (Ohayon et al., Arch. Gen. Psychiatry 60: 39-47 (2003)). Although it is possible that pain contributes to the depressed mood, it is also possible that perception of pain is increased in people with mood disorders. To determine whether SCID mice have altered pain tolerance, the latency for pain reaction to a hot plate was measured. […] (FIG. 30) and at 55° C.
Because tolerance to pain (Example 26) is also linked to the serotonergic pathways, measurements of the latency to pain reaction on hot plate after saline, serotonin reuptake inhibitor fluoxetine (Prozac) or serotonin antagonist GR38032F (Zofran) injection were made.
as §1

AMPK [3] = test: AMPK activation in quiescent MCF7 cells; assay type: cell-based; conditions: 1 and 2.5 μM, FIG. 20
Procedure: MCF7 cells were obtained from the ATCC. MCF7 cells in G0 were treated with varying doses of H2O2 (FIG. 1). The cells were examined while in the G0 phase of their life cycle to mimic the post-mitotic state of cells in vivo. Low passage MCF-7 cells in G0 were exposed to varying concentrations of H2O2 for 60 minutes with or without Euk-134 or ionizing radiation (5 Gy). For Western blot analysis of DNA-PKcs activation and the activation of other signaling pathways in this study, the following antibodies were used: ACC1 (Cell Signaling); p-ACC1 (Upstate); AMP-activated protein kinase (AMPK; Cell Signaling); p-AMPK(T172) (Cell Signaling); DNA-PK (Lab Vision); p53 (Novocastra); p-DNA-PK(S2056) (Abeam); p-p53(S15) (Cell Signaling); γ-H2AX (Upstate); 53BP1 (Novus Biologicals).
ENLITEN ATP assay kit (Promega) and ApoGlow assay kit (Cambrex), respectively. […] To determine whether the AMPK-inhibitory function of DNA-PKcs is cell autonomous, quiescent MCF7 cells were treated with 1 and 2.5 μM NU7026.

AMPK [4] = test: AMPK activation in C2C12 cells; assay type: cell-based
Procedure: Expression of PGC-1α (FIGS. 12-14 and 49) can be induced by multiple proteins, including the energy sensor AMPK and the longevity protein Sirt1. Nutrient deprivation stimulates AMPK activity due to increasing AMP/ATP ratios. AMPK is activated by LKB1 kinase. Alternately, AMPK is also activated by a Ca^2+/calmodulin-dependent protein kinase (CaMK) without AMP. In order to test which upstream kinase plays a major role for AMPK activation after DNA-PKcs inhibition, C2C12 cells were treated with NU7026 in the presence or absence of a known CaMK chemical inhibitor ST0609. […] This raised the possibility that DNA-PKcs suppresses LKB1 and subsequently AMPK.

LKB1 = LKB1 activation (LKB1 phosphorylation) in C2C12 cells; assay type: cell-based; conditions: NU7026 2.5 μM, Resveratrol 50 μM, FIG. 51A
Procedure: Cells were treated with DNA-PKcs inhibitors to ascertain whether DNA-PKcs suppresses LKB1 activity in vitro.

PGC-1α = PGC-1α expression in AMPK α1/α2-null MEFs; assay type: cell-based, mouse; conditions: FIG. 53
Excerpt: AMPK is a heterotrimer kinase composed of a catalytic α subunit, and the β and γ regulatory subunits. There are two isoforms (α1 and α2) of the catalytic α subunit.

PI3K = conditions: related kinase, selectivity; cited from earlier work
[5] = system: mouse embryonic fibroblasts and Chinese hamster ovary cells; conditions: Veuger et al 2003; Griffin et al. 2005; cited from earlier work

## O=c1cc(N2CCOCC2)oc2c1ccc1ccccc12 [NU7026, 2-(morpholin-4-yl)-benzo[h]chomen-4-one]
MCF7 cells
  Reactive oxygen species production: significantly decreased
[1]
  serum glucose levels: decreased serum glucose levels
Light/dark chamber test
  time in the dark compartment: less time in the dark compartment
  time in the light compartment: more time in the light compartment
  time to enter the light chamber: quicker to enter the light chamber
Forced swim test (FST)
  immobility in the forced swim test: decreased immobility
[2]
  time remaining on a hot surface: remain on a hot surface for longer periods of time
[2]; hot plate
  pain sensation: decreased pain sensation
AMPK [3]
  AMPK activation: activated AMPK
AMPK [4]; C2C12 cells, absence of STO609, FIG. 50
  AMPK activation: activated
AMPK [4]; C2C12 cells, presence of CaMK inhibitor STO609, FIG. 50
  AMPK activation: still observed
AMPK [4]; differentiated C2C12 myoblasts, data not shown
  AMPK activation: also activated AMPK
LKB1
  LKB1 activation (LKB1 phosphorylation): caused LKB1 activation
PGC-1α
  PGC-1α expression: not able to induce PGC-1α expression
PI3K
  IC50: 13 µM
[5]
  sensitization to radiation in vitro: sensitize mouse embryonic fibroblasts and Chinese hamster ovary cells to radiation

Reference: US20100130597A1, “DNA-PKCS MODULATES ENERGY REGULATION AND BRAIN FUNCTION” (The United State of America, as represented by the …, priority 2007, published 2010)
